# Like-named read-outs stand apart in the source and are kept apart here.
# Legend:
# KRas G12C mutant = molecular target: T1, KRas G12C mutant (Homo sapiens, UniProt P01116, G12C); test: Ras GTP binding domain inhibition assay (labeled-GTP competition, cell-free)
# T1 construct: made in house
# Outline: (§1)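 His-tagged protein immobilized on Ni-coated wells overnight at 4 °C. Compounds (20 μM single point or serial dilution for IC50) incubated 3 h at RT, ± Sos (residues 556-1049, 10-30 μg/mL) during the final hour. Cy3- or Cy5-GTP (100 nM) then added for 45 min; bound label read by fluorescence after washing.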
# KRas G12D mutant = molecular target: T2, KRas G12D mutant (Homo sapiens, UniProt P01116, G12D); test: as above
# T2 construct: made in house
# Outline: as §1
# KRas Q61H mutant = molecular target: T3, KRas Q61H mutant (Homo sapiens, UniProt P01116, Q61H); test: as above; settings: at 20 μM
# T3 construct: made in house
# Outline: as §1
# Kinetic solubility assay = format: physicochemical; settings: phosphate-buffered saline pH 7.4 with 2% DMSO, aqueous buffer, kinetic from dmso stock; pH 7.4 PBS + 2% DMSO, 25° C., two hours; effective range approximately 2-400 μM
# Procedure: Equipment: Water purification system Millipore Milli-Q Gradient A10 (Millipore, France); Thermomixer R Block, 1.5 ml (Eppendorf, Germany; Cat #5355); Matrix Multichannel Electronic Pipette 2-125 μL, 5-250 μL, 15-1250 μL (Thermo Scientific, USA; Cat ##2011, 2012, 2004); SpectraMax Plus Microplate Reader (Molecular Devices, USA; Product #02196); Multi-Well Plate Vacuum Manifold (Pall Corporation, USA; Product #5014); and Vacuum pump (Millipore, USA; Model #XX5500000)
# Analytical System: The measurements were performed using SpectraMax Plus reader in UV-Vis mode. Acquisition and analysis of the data were performed using SoftMax Pro v.5.4 (Molecular Devices) and Excel 2010 data analysis software.
# Methods: Briefly, using a 20 mM stock solution of the compound in 100% DMSO dilutions were prepared to a theoretical concentration of 400 μM in duplicates in phosphate-buffered saline pH 7.4 (138 mM NaCl, 2.7 mM KCl, 10 mM K-phosphate) with 2% final DMSO. The experimental compound dilutions in PBS were further allowed to equilibrate at 25° C. on a thermostatic shaker for two hours and then filtered through HTS filter plates using a vacuum manifold. The filtrates of test compounds were diluted 2-fold with acetonitrile with 2% DMSO before measuring.
# In parallel, compound dilutions in acetonitrile/PBS (1:1) were prepared to theoretical concentrations of 0 μM (blank), 10 μM, 25 μM, 50 μM, 100 μM, and 200 μM with 2% final DMSO to generate calibration curves. Ondansetron was used as reference compound to control proper assay performance. 200 μL of each sample was transferred to 96-well plate and measured in 200-550 nm range with 5 nm step.
# The concentrations of compounds in PBS filtrate are calculated using a dedicated Microsoft Excel calculation script. Proper absorbance wavelengths for calculations are selected for each compound manually based on absorbance maximums (absolute absorbance unit values for the minimum and maximum concentration points within 0-3 OD range). Each of the final datasets is additionally visually evaluated by the operator and goodness of fit (R2) is calculated for each calibration curve. […] This method is not suitable for liquid (at 25° C.) substances (were not present among the tested compounds). Table 3A provides the kinetic solubility for some of the exemplified compounds.
# KRas wild type = KRas wild type (Homo sapiens, UniProt P01116); test: Ras GTP binding domain inhibition assay (labeled-GTP competition, cell-free); design: made in house
# Outline: as §1
# Rac-1 = Rac-1 (Homo sapiens, UniProt P63000); test: as above; design: made in house
# Outline: as §1
# Rho-A = Rho-A (Homo sapiens, UniProt P61586); test: as above; design: made in house
# Outline: as §1
# [1] = with SOS, read-out: KRas G12C mutant + SOS: % inh.
# [2] = without SOS, read-out: KRas G12C mutant: % inh.
# [3] = with SOS, read-out: KRas G12D mutant + SOS: % inh.
# [4] = without SOS, read-out: KRas G12D mutant: % inh.
# [5] = with SOS, read-out: KRas Q61H mutant + SOS: % inh.
# [6] = without SOS, read-out: KRas Q61H mutant: % inh.
# [7] = with SOS, read-out: KRas wild type + SOS: % inh.
# [8] = without SOS, read-out: KRas wild type: % inh.
# [9] = with SOS, read-out: Rac-1 + SOS: % inh.
# [10] = without SOS, read-out: Rac-1: % inh.
# [11] = with SOS, read-out: Rho-A + SOS: % inh.
# [12] = without SOS, read-out: Rho-A: % inh.
inhibition at 20 µM (KRas G12C mutant; [1]) [%],inhibition at 20 µM (KRas G12C mutant; [2]) [%],inhibition at 20 µM (KRas G12D mutant; [3]) [%],inhibition at 20 µM (KRas G12D mutant; [4]) [%],inhibition at 20 µM (KRas Q61H mutant; [5]) [%],inhibition at 20 µM (KRas Q61H mutant; [6]) [%],solubility kinetic at 2 h (Kinetic solubility assay) [µM],inhibition at 20 µM (KRas wild type; [7]) [%],inhibition at 20 µM (KRas wild type; [8]) [%],inhibition at 20 µM (Rac-1; [9]) [%],inhibition at 20 µM (Rac-1; [10]) [%],inhibition at 20 µM (Rho-A; [11]) [%],inhibition at 20 µM (Rho-A; [12]) [%],SMILES
76 to 100,51 to 75,26 to 50,26 to 50,76 to 100,51 to 75,82,76 to 100,76 to 100,51 to 75,51 to 75,76 to 100,76 to 100,"COC1CCCN(c2nc(-c3nccn3C)nc3sc(-c4ccn(C(C)C)n4)c(C)c23)C1 (racemic) [Compound 40, rac-6-(1-Isopropyl-1H-pyrazol-3-yl)-4-(3-methoxypiperidin-1-yl)-5-methyl-2-(1-methyl-1H-imidazol-2-yl)thieno[2,3-d]pyrimidine]"
76 to 100,76 to 100,76 to 100,51 to 75,76 to 100,76 to 100,76,76 to 100,76 to 100,76 to 100,76 to 100,76 to 100,76 to 100,"CO[C@H]1CC(Nc2nc(-c3nccn3C)nc3sc(-c4ccn(C(C)C)n4)c(C)c23)C[C@@H]1OC (racemic) [Compound 44, rac-N-((3S,4S)-3,4-Dimethoxycyclopentyl)-6-(1-isopropyl-1H-pyrazol-3-yl)-5-methyl-2-(1-methyl-1H-imidazol-2-yl)thieno[2,3-d]pyrimidin-4-amine]"
26 to 50,26 to 50,51 to 75,51 to 75,26 to 50,51 to 75,18,26 to 50,51 to 75,–,26 to 50,–,51 to 75,"COC[C@@H]1CC[C@@H]1CNc1nc(-c2nccn2C)nc2sc(-c3ccn(C(C)C)n3)c(C)c12 (racemic) [Compound 63, rac-6-(1-Isopropyl-1H-pyrazol-3-y)-N-(((1S,2R)-2-(methoxymethyl)cyclobutyl)methyl)-5-methyl-2-(1-methyl-1H-imidazol-2-yl)thieno[2,3-d]pyrimidin-4-amine]"
51 to 75,51 to 75,51 to 75,51 to 75,76 to 100,76 to 100,79,51 to 75,51 to 75,26 to 50,1 to 25,51 to 75,51 to 75,"CO[C@H]1CC[C@@H](Nc2nc(-c3ccccn3)nc3sc(-c4ccn(C(C)C)n4)c(C)c23)C1 (racemic) [Compound 69, Rac-6-(1-isopropyl-1H-pyrazol-3-yl)-N-((1R,3S)-3-methoxycyclopentyl)-5-methyl-2-(pyridine-2-yl)thieno[2,3-d]pyrimidin-4-amine]"
76 to 100,76 to 100,76 to 100,51 to 75,76 to 100,76 to 100,268,76 to 100,76 to 100,76 to 100,76 to 100,76 to 100,26 to 50,"COCCCNc1nc(-c2nccn2C)nc2sc(-c3ccn(C(C)C)n3)c(C)c12 [Compound 36, 6-(1-Isopropyl-1H-pyrazol-3-yl)-N-(3-methoxypropyl)-5-methyl-2-(1-methyl-1H-imidazol-2-yl)thieno[2,3-d]pyrimidin-4-amine]"

# From patent US20230227466A1, “SUBSTITUTED THIENOPYRIMIDINES THAT INTERACT WITH THE RAS SUPERFAMILY FOR THE TREATMENT OF CANCERS, INFLAMMATORY DISEASES, RASOPATHIES, AND FIBROTIC DISEASE” (SHY Therapeutics, LLC, priority 2020, published 2023)
